Test system: MV-4-11 cells
Assay: Gene expression microarray analysis (Affymetrix PrimeView) and GSEA
Format: cell-based, human
Design: RFU PODN (11730768_x_at) / Fold change /veh PODN (11730768_x_at) / RFU LINC00158 (11744669_a_at) / Fold change /veh LINC00158 (11744669_a_at) / RFU DUSP10 (11751237_a_at) / Fold change /veh DUSP10 (11751237_a_at) / RFU ID3 (11757404_x_at) / Fold change /veh ID3 (11757404_x_at) / RFU PLEKHG5 (11737974_s_at) / Fold change /veh PLEKHG5 (11737974_s_at) / RFU LRRC4B (11730491_at) / Fold change /veh LRRC4B (11730491_at) / RFU GIMAP4 (11747438_a_at) / Fold change /veh GIMAP4 (11747438_a_at) / RFU KRT8 (11758183_x_at) / Fold change /veh KRT8 (11758183_x_at) / RFU CNN1 (11734310_a_at) / Fold change /veh CNN1 (11734310_a_at) / RFU VPS37D (11726825_at) / Fold change /veh VPS37D (11726825_at) / RFU C10orf10 (11716522_x_at) / Fold change /veh C10orf10 (11716522_x_at) / RFU KIR2DL2 /// KIR2DL4 /// KIR2DL5A /// KIR2DL5B /// KIR2DS1 /// KIR2DS2 /// KIR2DS3 /// KIR2DS4 /// KIR3DL3 /// KIR3DL3 /// KIR3DS1 (11738374_at) / Fold change /veh KIR2DL2 /// KIR2DL4 /// KIR2DL5A /// KIR2DL5B /// KIR2DS1 /// KIR2DS2 /// KIR2DS3 /// KIR2DS4 /// KIR3DL3 /// KIR3DL3 /// KIR3DS1 (11738374_at) / RFU C1QL1 (11718748_at) / Fold change /veh C1QL1 (11718748_at) / RFU TMPRSS4 (11747572_a_at) / Fold change /veh TMPRSS4 (11747572_a_at) / RFU HAMP (11756126_x_at) / Fold change /veh HAMP (11756126_x_at) / RFU RNFT2 (11725882_a_at) / Fold change /veh RNFT2 (11725882_a_at) / RFU NR4A2 (11747474_a_at) / Fold change /veh NR4A2 (11747474_a_at) / RFU ABCC12 (11746883_a_at) / Fold change /veh ABCC12 (11746883_a_at) / RFU TMEM136 (11760407_x_at) / Fold change /veh TMEM136 (11760407_x_at) / RFU CLDN22 /// WWC2 (11732394_at) / Fold change /veh CLDN22 /// WWC2 (11732394_at) / RFU HLA-DPB1 (11760878_x_at) / Fold change /veh HLA-DPB1 (11760878_x_at) / RFU SPINT1 (11716480_a_at) / Fold change /veh SPINT1 (11716480_a_at) / RFU GAP43 (11754022_s_at) / Fold change /veh GAP43 (11754022_s_at) / RFU A4GNT (11735810_at) / Fold change /veh A4GNT (11735810_at) / RFU PRB3 (11715151_x_at) / Fold change /veh PRB3 (11715151_x_at) / RFU TUBB4B (11761932_at) / Fold change /veh TUBB4B (11761932_at) / RFU CAPN14 (11732068_a_at) / Fold change /veh CAPN14 (11732068_a_at) / RFU TMCC2 (11721928_a_at) / Fold change /veh TMCC2 (11721928_a_at) / RFU IRGQ (11745062_a_at) / Fold change /veh IRGQ (11745062_a_at) / RFU FAM174B (11720279_a_at) / Fold change /veh FAM174B (11720279_a_at) / RFU TMPRSS4 (11748680_a_at) / Fold change /veh TMPRSS4 (11748680_a_at) / RFU FAM212B (11763350_a_at) / Fold change /veh FAM212B (11763350_a_at) / RFU PLEKHG5 (11743358_a_at) / Fold change /veh PLEKHG5 (11743358_a_at) / RFU ZSCAN30 (11745921_a_at) / Fold change /veh ZSCAN30 (11745921_a_at) / RFU CMKLR1 (11741424_a_at) / Fold change /veh CMKLR1 (11741424_a_at) / RFU LOC101060620 /// MAPK8IP1 (11723275_at) / Fold change /veh LOC101060620 /// MAPK8IP1 (11723275_at) / RFU SPTSSB (11747773_x_at) / Fold change /veh SPTSSB (11747773_x_at) / RFU PRSS12 (11739890_at) / Fold change /veh PRSS12 (11739890_at) / RFU BIN1 (11741810_x_at) / Fold change /veh BIN1 (11741810_x_at) / RFU WNT11 (11732464_a_at) / Fold change /veh WNT11 (11732464_a_at) / RFU C10orf10 (11716521_a_at) / Fold change /veh C10orf10 (11716521_a_at) / RFU C5orf56 (11738089_at) / Fold change /veh C5orf56 (11738089_at) / RFU CYB561 (11721691_x_at) / Fold change /veh CYB561 (11721691_x_at) / RFU ANKRD19P (11752326_a_at) / Fold change /veh ANKRD19P (11752326_a_at) / RFU OR2T12 /// OR2T33 /// OR2T8 (11738714_s_at) / Fold change /veh OR2T12 /// OR2T33 /// OR2T8 (11738714_s_at) / RFU VCAN (11748164_a_at) / Fold change /veh VCAN (11748164_a_at) / RFU JSRP1 (11732532_at) / Fold change /veh JSRP1 (11732532_at) / RFU KRTAP10-11 (11738290_x_at) / Fold change /veh KRTAP10-11 (11738290_x_at) / RFU MYO3A (11730013_a_at) / Fold change /veh MYO3A (11730013_a_at) / RFU EBF3 (11725865_a_at) / Fold change /veh EBF3 (11725865_a_at) / RFU CAMK2N1 (11719241_x_at) / Fold change /veh CAMK2N1 (11719241_x_at) / RFU C5orf56 (11738088_a_at) / Fold change /veh C5orf56 (11738088_a_at) / RFU OLFML3 (11715873_a_at) / Fold change /veh OLFML3 (11715873_a_at) / RFU LOC100653217 /// NTM (11731650_a_at) / Fold change /veh LOC100653217 /// NTM (11731650_a_at) / RFU MAPK11 (11762145_a_at) / Fold change /veh MAPK11 (11762145_a_at) / RFU FIZ1 (11724087_x_at) / Fold change /veh FIZ1 (11724087_x_at) / RFU OASL (11726364_x_at) / Fold change /veh OASL (11726364_x_at) / RFU SOX15 (11748057_x_at) / Fold change /veh SOX15 (11748057_x_at) / RFU CD79A (11719716_a_at) / Fold change /veh CD79A (11719716_a_at) / RFU HIST1H1D (11736915_at) / Fold change /veh HIST1H1D (11736915_at) / RFU CASKIN2 (11723855_a_at) / Fold change /veh CASKIN2 (11723855_a_at) / RFU LOC730098 (11760151_x_at) / Fold change /veh LOC730098 (11760151_x_at) / RFU OR4N2 (11742367_at) / Fold change /veh OR4N2 (11742367_at) / RFU PRRT2 (11749266_a_at) / Fold change /veh PRRT2 (11749266_a_at) / RFU SNX32 (11753110_a_at) / Fold change /veh SNX32 (11753110_a_at) / RFU CDHR5 (11726645_a_at) / Fold change /veh CDHR5 (11726645_a_at) / RFU RCAN1 (11760418_a_at) / Fold change /veh RCAN1 (11760418_a_at) / RFU FAM167A (11723789_a_at) / Fold change /veh FAM167A (11723789_a_at) / RFU FAM26E (11764081_at) / Fold change /veh FAM26E (11764081_at) / RFU ISYNA1 (11749810_s_at) / Fold change /veh ISYNA1 (11749810_s_at) / RFU ACY1 (11761880_at) / Fold change /veh ACY1 (11761880_at) / RFU 11764098_at / Fold change /veh 11764098_at / RFU SAMD14 (11745864_x_at) / Fold change /veh SAMD14 (11745864_x_at) / RFU NPB (11741838_a_at) / Fold change /veh NPB (11741838_a_at) / RFU TMPRSS6 (11731388_a_at) / Fold change /veh TMPRSS6 (11731388_a_at) / RFU KRTAP10-2 (11738614_at) / Fold change /veh KRTAP10-2 (11738614_at) / RFU ARHGAP8 /// PRR5-ARHGAP8 (11727945_x_at) / Fold change /veh ARHGAP8 /// PRR5-ARHGAP8 (11727945_x_at) / RFU KRTAP5-7 /// NADSYN1 (11734609_at) / Fold change /veh KRTAP5-7 /// NADSYN1 (11734609_at) / RFU RASL12 (11751679_a_at) / Fold change /veh RASL12 (11751679_a_at) / RFU CDKN2B (11736163_a_at) / Fold change /veh CDKN2B (11736163_a_at) / RFU PRF1 (11729649_at) / Fold change /veh PRF1 (11729649_at) / RFU, ZNF638 /// ZNF638-IT1 / Fold change vs veh, ZNF638 /// ZNF638-IT1 / RFU, PANK3 / Fold change vs veh, PANK3 / RFU, SH3YL1 / Fold change vs veh, SH3YL1 / RFU, ZEB2 / Fold change vs veh, ZEB2 / RFU, NRIP1 / Fold change vs veh, NRIP1 / RFU, PTTG1IP / Fold change vs veh, PTTG1IP / RFU, CAPN2 / Fold change vs veh, CAPN2 / RFU, MED14 / Fold change vs veh, MED14 / RFU, SNORA58 / Fold change vs veh, SNORA58 / RFU, C1orf63 / Fold change vs veh, C1orf63 / RFU, LRRFIP1 / Fold change vs veh, LRRFIP1 / RFU, NDUFAF7 / Fold change vs veh, NDUFAF7 / RFU, SLC12A2 / Fold change vs veh, SLC12A2 / RFU, IBTK / Fold change vs veh, IBTK / RFU, ESF1 / Fold change vs veh, ESF1 / Fold change vs veh, TMEM50B / RFU, TAOK1 / Fold change vs veh, TAOK1 / RFU, ACBD3 / Fold change vs veh, ACBD3 / RFU, TMA16 / Fold change vs veh, TMA16 / RFU, RWDD3 / Fold change vs veh, RWDD3 / RFU, BCAT1 / Fold change vs veh, BCAT1 / RFU, EDEM3 / Fold change vs veh, EDEM3 / RFU, TMEM33 / Fold change vs veh, TMEM33 / RFU, WDR75 / Fold change vs veh, WDR75 / RFU, AHCTF1 / Fold change vs veh, AHCTF1 / RFU, TFRC / Fold change vs veh, TFRC / RFU, ZDHHC17 / Fold change vs veh, ZDHHC17 / RFU, NOM1 / Fold change vs veh, NOM1 / RFU, ARL8B / Fold change vs veh, ARL8B / RFU, ZBTB11 / Fold change vs veh, ZBTB11 / RFU, TAMM41 / Fold change vs veh, TAMM41 / RFU, KIAA1704 /// LOC100996395 / Fold change vs veh, KIAA1704 /// LOC100996395 / RFU, ING1 / Fold change vs veh, ING1 / RFU, TRMT61B / Fold change vs veh, TRMT61B / RFU, FUBP3 / Fold change vs veh, FUBP3 / RFU, TP53 / Fold change vs veh, TP53 / RFU, TNKS2 / Fold change vs veh, TNKS2 / RFU, ZFP14 / Fold change vs veh, ZFP14 / RFU, ACTR2 / Fold change vs veh, ACTR2 / RFU, PPP3R1 / Fold change vs veh, PPP3R1 / RFU, PIK3R1 / Fold change vs veh, PIK3R1 / RFU, HNRNPA1 / Fold change vs veh, HNRNPA1 / RFU, RNF170 / Fold change vs veh, RNF170 / RFU, ZNF28 / Fold change vs veh, ZNF28 / RFU, RNGTT / Fold change vs veh, RNGTT / RFU, OGT / Fold change vs veh, OGT / RFU, BRD1 / Fold change vs veh, BRD1 / RFU, MARS / Fold change vs veh, MARS / RFU, ZNF655 / Fold change vs veh, ZNF655 / RFU, FAHD1 / Fold change vs veh, FAHD1 / RFU, BDP1 / Fold change vs veh, BDP1 / RFU, LRRCC1 / Fold change vs veh, LRRCC1 / RFU, ARID1A / Fold change vs veh, ARID1A / RFU, ZNF146 / Fold change vs veh, ZNF146 / RFU, ZNF330 / Fold change vs veh, ZNF330 / RFU, GPN3 / Fold change vs veh, GPN3 / RFU, C9orf123 / Fold change vs veh, C9orf123 / RFU, N4BP2L2 / Fold change vs veh, N4BP2L2 / RFU, ARFIP1 / Fold change vs veh, ARFIP1 / RFU, FAM179B / Fold change vs veh, FAM179B / RFU, BCL10 / Fold change vs veh, BCL10 / RFU, UHRF1BP1L / Fold change vs veh, UHRF1BP1L / RFU, BET1 / Fold change vs veh, BET1 / RFU, CNOT2 / Fold change vs veh, CNOT2 / RFU, ZNF268 / Fold change vs veh, ZNF268 / Fold change vs veh, ZNF507 / RFU, DGCR2 / Fold change vs veh, DGCR2 / RFU, WDSUB1 / Fold change vs veh, WDSUB1 / Fold change vs veh, HSP90B1 /// MIR3652 / RFU, ADSS / Fold change vs veh, ADSS / RFU, GK / Fold change vs veh, GK / RFU, ZNF148 / Fold change vs veh, ZNF148 / RFU, TAF9 / Fold change vs veh, TAF9 / RFU, SLC1A5 / Fold change vs veh, SLC1A5 / RFU, SLMO2 / Fold change vs veh, SLMO2 / RFU, ABCC4 / Fold change vs veh, ABCC4 / RFU, LOC101060439 /// RAP1B / Fold change vs veh, LOC101060439 /// RAP1B / RFU, RFX7 / Fold change vs veh, RFX7 / RFU, GTPBP10 / Fold change vs veh, GTPBP10 / RFU, CNEP1R1 / Fold change vs veh, CNEP1R1 / RFU, BIVM-ERCC5 /// ERCC5 / Fold change vs veh, BIVM-ERCC5 /// ERCC5 / RFU, ILF3 / Fold change vs veh, ILF3 / RFU 11762660_at / Fold change /veh 11762660_at / RFU VCAN (11757783_s_at) / Fold change /veh VCAN (11757783_s_at) / RFU DDX43 (11728927_at) / Fold change /veh DDX43 (11728927_at) / RFU KRT8 (11758188_x_at) / Fold change /veh KRT8 (11758188_x_at) / RFU NKD1 (11759106_at) / Fold change /veh NKD1 (11759106_at) / RFU SRD5A1 (11742802_a_at) / Fold change /veh SRD5A1 (11742802_a_at) / RFU TPSAB1 /// TPSB2 (11721975_s_at) / Fold change /veh TPSAB1 /// TPSB2 (11721975_s_at) / RFU GSTM3 (11746129_a_at) / Fold change /veh GSTM3 (11746129_a_at) / RFU IL23R (11737362_x_at) / Fold change /veh IL23R (11737362_x_at) / RFU TMEM51 (11727254_a_at) / Fold change /veh TMEM51 (11727254_a_at) / RFU PIWIL2 (11732686_x_at) / Fold change /veh PIWIL2 (11732686_x_at) / RFU ORM1 (11744905_x_at) / Fold change /veh ORM1 (11744905_x_at) / RFU CCDC152 (11743942_at) / Fold change /veh CCDC152 (11743942_at) / RFU ECM1 (11717891_a_at) / Fold change /veh ECM1 (11717891_a_at) / RFU IL23R (11748794_a_at) / Fold change /veh IL23R (11748794_a_at) / RFU TNFAIP8L3 (11732012_x_at) / Fold change /veh TNFAIP8L3 (11732012_x_at) / RFU MBOAT4 (11741988_at) / Fold change /veh MBOAT4 (11741988_at) / RFU 11764193_at / Fold change /veh 11764193_at / RFU TMEM53 (11763286_at) / Fold change /veh TMEM53 (11763286_at) / RFU MAGEB2 (11727129_at) / Fold change /veh MAGEB2 (11727129_at) / RFU TMEM200A (11744735_a_at) / Fold change /veh TMEM200A (11744735_a_at) / RFU CCDC152 (11751479_a_at) / Fold change /veh CCDC152 (11751479_a_at) / RFU FAM211A (11726209_a_at) / Fold change /veh FAM211A (11726209_a_at) / RFU RGS16 (11746705_a_at) / Fold change /veh RGS16 (11746705_a_at) / RFU VCAN (11755009_s_at) / Fold change /veh VCAN (11755009_s_at) / RFU RHOB (11743442_s_at) / Fold change /veh RHOB (11743442_s_at) / RFU RGS16 (11720943_a_at) / Fold change /veh RGS16 (11720943_a_at) / RFU RGS16 (11720944_at) / Fold change /veh RGS16 (11720944_at) / RFU, VPS4B / Fold change vs veh, VPS4B / RFU, CREB1 / Fold change vs veh, CREB1 / RFU, DNAJC13 / Fold change vs veh, DNAJC13 / RFU, GNAQ / Fold change vs veh, GNAQ / RFU, CDK5R1 / Fold change vs veh, CDK5R1 / RFU, ZRANB3 / Fold change vs veh, ZRANB3 / RFU, CUL4A / Fold change vs veh, CUL4A / RFU, CCNY / Fold change vs veh, CCNY / RFU, UFL1 / Fold change vs veh, UFL1 / RFU, COG3 / Fold change vs veh, COG3 / RFU, DIAPH2 / Fold change vs veh, DIAPH2 / RFU, SKA2 / Fold change vs veh, SKA2 / RFU, AFF3 / Fold change vs veh, AFF3 / RFU, LMF1 / Fold change vs veh, LMF1 / RFU, IPO11 / Fold change vs veh, IPO11 / RFU, DFFB / Fold change vs veh, DFFB / RFU, FOXP1 / Fold change vs veh, FOXP1 / RFU, CARD8 / Fold change vs veh, CARD8 / RFU, STRN3 / Fold change vs veh, STRN3 / RFU, ADK / Fold change vs veh, ADK / RFU, RASSF2 / Fold change vs veh, RASSF2 / RFU, WIPF1 / Fold change vs veh, WIPF1 / RFU, LARP1B / Fold change vs veh, LARP1B / RFU, RASA1 / Fold change vs veh, RASA1 / RFU, RB1 / Fold change vs veh, RB1 / RFU, PPFIA1 / Fold change vs veh, PPFIA1 / RFU, MAT2A / Fold change vs veh, MAT2A / RFU, CCT5 / Fold change vs veh, CCT5 / RFU, WDR92 / Fold change vs veh, WDR92 / RFU, CUX1 / Fold change vs veh, CUX1 / RFU, TTC7A / Fold change vs veh, TTC7A / RFU, TMEM135 / Fold change vs veh, TMEM135 / RFU, DEPTOR / Fold change vs veh, DEPTOR / RFU, CPM / Fold change vs veh, CPM / RFU, DNAJB6 / Fold change vs veh, DNAJB6 / RFU, CACNA2D3 / Fold change vs veh, CACNA2D3 / RFU, DTX4 / Fold change vs veh, DTX4 / RFU, TFCP2 / Fold change vs veh, TFCP2 / RFU, GMCL1 /// GMCL1P1 / Fold change vs veh, GMCL1 /// GMCL1P1 / RFU, AEBP2 / Fold change vs veh, AEBP2 / RFU, SNHG1 /// SNORD22 /// SNORD25 /// SNORD26 /// SNORD27 /// SNORD28 /// SNORD29 /// SNORD31 / Fold change vs veh, SNHG1 /// SNORD22 /// SNORD25 /// SNORD26 /// SNORD27 /// SNORD28 /// SNORD29 /// SNORD31 / Fold change (Aza/veh), C12orf56 (ProbeSet 11735607_a_at) / Fold change (ACY-1035/veh), C12orf56 (ProbeSet 11735607_a_at) / Fold change (Aza/veh), FGFR1OP (ProbeSet 11751329_s_at) / Fold change (ACY-1035/veh), FGFR1OP (ProbeSet 11751329_s_at) / Fold change (Aza/veh), VPS36 (ProbeSet 11739960_a_at) / Fold change (ACY-1035/veh), VPS36 (ProbeSet 11739960_a_at) / RFU SYPL1 (11715823_x_at) / Fold change /veh SYPL1 (11715823_x_at) / RFU IGFBP7 (11715501_s_at) / Fold change /veh IGFBP7 (11715501_s_at) / RFU REEP3 (11722064_at) / Fold change /veh REEP3 (11722064_at) / RFU IGLL1 (11728026_x_at) / Fold change /veh IGLL1 (11728026_x_at): dose or concentration left out as unconfirmed
Details: ProbeSet 11732154_at; LIST B

**Q.** With Nc1ccc(-c2cccs2)cc1NC(=O)c1ccc2c(c1)cc(C1CC1)n2CCN1CCOCC1 [ACY-1035] as the molecule, how does the “Fold change vs veh, OGT” value read?
**A.** Its value is 1.05.
